Experimental data reported in patent US8841310B2, “Combinations of a pyrimidine containing NNRTI with RT inhibitors” (Janssen R & D Ireland, priority 2003, dated 2014).
Read-outs that look alike come from different tables or passages of the source.

How the values were obtained:
[1] = system: wild-type or zidovudine-resistant HIV-1 strains; conditions: MT-4 cells; cited from earlier work
HIV-1 M184V = conditions: cited from earlier work
HIV = conditions: short course of monotherapy; cited from earlier work
[2] = system: laboratory strain of HIV with combination of 65R, 74V, 115F and/or 184V; conditions: combination of resistance mutations; cited from earlier work
[3] = system: simian immunodeficiency virus; conditions: SIV after 5 to 15 weeks treatment, 30 mg/kg, newborn rhesus macaques; cited from earlier work
[4] = system: clinical HIV strains expressing the M184V mutation; conditions: cited from earlier work
[5] = system: recombinant virus expressing the K65R mutation; conditions: in vitro; cited from earlier work
HIV-1 wild type = assay: MT-4 cell-based antiviral assay (viral cytopathicity, tetrazolium); conditions: Human immunodeficiency virus 1, MT4
Procedure: (§1) Compound E-TMC278 was tested in a cell-based assay, using natural host cells of HIV. MT-4 cells (a cell line of human T cells) were infected with HIV-1 (wild type or mutants) and exposed to different concentrations of antiviral compound in the presence of 10% fetal calf serum. Cytotoxicity was determined in parallel with the antiviral activity so that the selectivity of the antiviral effect could be assessed. Active compounds have to penetrate the cell membrane in order to interfere with replication steps inside the cell.
(§2) After four days of incubation at 37° C., the viability of the HIV and mock-infected cells was assessed by an automated tetrazolium-based calorimetric assay. This method enabled the calculation of both the 50% inhibitory concentration for inhibition of viral cytopathicity (IC50), the IC90, and the 50% cytotoxic concentration (CC50). The ratio CC50/IC50, also called the selectivity index, is an indication of the specificity of the antiviral effect. Tested HIV strains included: Wild type (wt) HIV-1; a panel of single and double mutants, obtained by site-directed mutagenesis (SDM), and a panel of clinical isolates, selected for resistance against NNRTIs.

HIV-1 mutant 190S = assay: MT-4 cell-based antiviral assay, SDM mutant; conditions: Human immunodeficiency virus 1, MT4
Procedure: as §1, §2
(§3) A limited panel of HIV-1 mutants was constructed using site-directed mutagenesis (SDM) and homologous recombination techniques. […] Nevirapine (NVP) and efavirenz (EFV) were included as controls.

HIV-1 mutant 188L = assay: MT-4 cell-based antiviral assay, SDM mutant
Procedure: as §1, §2, §3

HIV-1 mutant 101E = assay: MT-4 cell-based antiviral assay, SDM mutant; conditions: Human immunodeficiency virus 1, MT4
Procedure: as §1, §2, §3

HIV-1 mutant 227C = assay: MT-4 cell-based antiviral assay, SDM mutant
Procedure: as §1, §2, §3

HIV-1 mutant 188H = assay: MT-4 cell-based antiviral assay, SDM mutant; conditions: Human immunodeficiency virus 1, MT4
Procedure: as §1, §2, §3

[6] = system: HIV-1 double mutant 101E + 103N; assay: MT-4 cell-based antiviral assay, SDM mutant; conditions: Human immunodeficiency virus 1, MT4, 96 h
Procedure: as §1, §2, §3

HIV-1 mutant 106A = assay: MT-4 cell-based antiviral assay, SDM mutant; conditions: Human immunodeficiency virus 1, MT4
Procedure: as §1, §2, §3

HIV-1 mutant 190A = assay: MT-4 cell-based antiviral assay, SDM mutant; conditions: Human immunodeficiency virus 1, MT4
Procedure: as §1, §2, §3

HIV-1 mutant 227L = assay: MT-4 cell-based antiviral assay, SDM mutant; conditions: Human immunodeficiency virus 1, MT4
Procedure: as §1, §2, §3

HIV-1 mutant 103N = assay: MT-4 cell-based antiviral assay, SDM mutant
Procedure: as §1, §2, §3

HIV-1 mutant 234I = assay: MT-4 cell-based antiviral assay, SDM mutant; conditions: Human immunodeficiency virus 1, MT4
Procedure: as §1, §2, §3

HIV-1 mutant 100I = assay: MT-4 cell-based antiviral assay, SDM mutant
Procedure: as §1, §2, §3

HIV-1 mutant 225H = assay: MT-4 cell-based antiviral assay, SDM mutant; conditions: Human immunodeficiency virus 1, MT4
Procedure: as §1, §2, §3

HIV-1 mutant 179E = assay: MT-4 cell-based antiviral assay, SDM mutant; conditions: Human immunodeficiency virus 1, MT4
Procedure: as §1, §2, §3

HIV-1 mutant 138K = assay: MT-4 cell-based antiviral assay, SDM mutant; conditions: Human immunodeficiency virus 1, MT4
Procedure: as §1, §2, §3

[7] = system: HIV-1 double mutant 227L + 106A; assay: MT-4 cell-based antiviral assay, SDM mutant
Procedure: as §1, §2, §3

HIV-1 mutant 188C = assay: MT-4 cell-based antiviral assay, SDM mutant; conditions: Human immunodeficiency virus 1, MT4
Procedure: as §1, §2, §3

HIV-1 mutant 179D = assay: MT-4 cell-based antiviral assay, SDM mutant; conditions: Human immunodeficiency virus 1, MT4
Procedure: as §1, §2, §3

[8] = system: HIV-1 double mutant 100I + 103N; assay: MT-4 cell-based antiviral assay, SDM mutant
Procedure: as §1, §2, §3

[9] = system: HIV-1 double mutant 103N + 181I; assay: MT-4 cell-based antiviral assay, SDM mutant; conditions: Human immunodeficiency virus 1, MT4, 96 h
Procedure: as §1, §2, §3

HIV-1 mutant 181C = assay: MT-4 cell-based antiviral assay, SDM mutant
Procedure: as §1, §2, §3

HIV-1 mutant 236L = assay: MT-4 cell-based antiviral assay, SDM mutant; conditions: Human immunodeficiency virus 1, MT4
Procedure: as §1, §2, §3

wild type HIV-1 = assay: Development of resistance in vitro, MT4 cells, high multiplicity of infection; format: cell-based; conditions: wild type HIV-1, >1 infectious virus per cell, all tested concentrations, total 30 days
Source text: Emerging virus was collected for pheno- and genotyping. Cultures without evidence of virus replication were further sub-cultivated in the presence of the same concentration of inhibitor for a total duration of 30 days (10 passages).

HIV-1 [10] = conditions: human PBMCs and MT-2 cells, increasing drug concentrations; cited from earlier work
HIV-1 mutant 108I = assay: MT-4 cell-based antiviral assay, SDM mutant; conditions: Human immunodeficiency virus 1, MT4
Procedure: as §1, §2, §3

HIV-1 [11] = conditions: cited from earlier work
[12] = system: HIV-1 double mutant 103N + 181C; assay: MT-4 cell-based antiviral assay, SDM mutant; conditions: Human immunodeficiency virus 1, MT4, read-out: IC50 value
Procedure: as §1, §2, §3

HIV-1 RT = target: T1, HIV-1 RT (Human immunodeficiency virus type 1 group M subtype B, UniProt P04585); conditions: read-out: inhibition constant; cited from earlier work
T1 construct: The primary target of tenofovir diphosphate is reverse transcriptase (RT)

[13] = system: monotropic HIV strain Ba-L; assay: MO-DC/CD4(+) T cell co-culture model of sexual HIV transmission; format: cell-based; conditions: in words
Source text: Immature monocyte derived dendritic cells (immMO-DC) represent a good model for interstitial dendritic cells, which are early targets during sexual HIV transmission and important initiators of the immune response. These immMO-DC were used in “in vitro” models to test the prevention of HIV infection via sexual intercourse or related intimate contact between partners.
For instance, in one model, monocyte-derived dendritic cells (MO-DC) were infected for 2-hours with the monotropic HIV strain Ba-L at a multiplicity of infection (MOI) of 10^−3. After infection, cells were washed 6 times and resuspended in 10% BCS at 400.000 cells/ml. Autologous CD4(+) T cells were purified out of the lymphocyte fraction of the same elutration as the MO-DC and used at a concentration of 2×10^6 cells/ml ((ratio MO-DC/CD4(+) T: 1/5).
A serial dilution of a compound of formula (I) (test compound) was added to the MO-DC/CD4(+) T cell co-cultures. Each experiment was done in 96-well plates, in which each cup contained 50 μl of MO-DC, 50 μl of CD4(+) T cells and 100 μl of test compound. Half of the culture medium, with test compound, was refreshed twice weekly. Supernatants were analysed in ELISA after 14 days of culture. To determine antiviral activity, the test compound concentration able to suppress 50% of the viral replication at the end of the primary cultures (EC50) was measured.

[14] = wild type, MT-4 cells, 10% fetal calf serum, read-out: IC50
[15] = Human immunodeficiency virus 1, MT4
[16] = Human immunodeficiency virus 1, MT4, 96 h
[17] = Human immunodeficiency virus 1, MT4, 96 h, 100I + 103N, MT-4 cells
[18] = Human immunodeficiency virus 1, MT4, read-out: IC50 value

For `Nc1nc(NC2CC2)c2ncn([C@H]3C=C[C@@H](CO)C3)c2n1` [abacavir], the “passages until significant decrease in susceptibility” value [1] is listed as “eight to ten”, the “decrease in HIV-1 susceptibility” value (HIV-1 M184V) is listed as 3 fold and the “average reduction in viral load” value (HIV) is listed as “more than 1.4 log 10 RNA copies/ml”. The reduction in susceptibility [2] was 10 fold.
For `C[C@H](Cn1cnc2c(N)ncnc21)OCP(=O)(O)O` [tenofovir], the decreased susceptibility [3] is given as “approximately 5 fold”, the susceptibility in vitro [4] is given as “wild-type or increased susceptibility” and the decreased susceptibility [5] is given as 3 fold.
`Cc1ccnc2c1NC(=O)c1cccnc1N2C1CC1` [NVP, 11-cyclopropyl-5,11-dihydro-4-methyl-6H-dipyrido-[3,2-b: 2′,3′-e][1,4]diazepin-6-one] showed an IC50 (HIV-1 wild type; [14]) of 81 nM, an IC50 (HIV-1 mutant 190S) of 10000 nM and an IC50 (HIV-1 mutant 188L; [15]) of 10000 nM. It also gave an IC50 (HIV-1 mutant 101E) of 547 nM, an IC50 (HIV-1 mutant 227C; [15]) of 1820 nM and an IC50 (HIV-1 mutant 188H) of 241 nM. It also gave an IC50 [6] of 7030 nM, an IC50 (HIV-1 mutant 106A) of 2980 nM and an IC50 (HIV-1 mutant 190A) of 4100 nM. It also gave an IC50 (HIV-1 mutant 227L) of 78 nM, an IC50 (HIV-1 mutant 103N; [15]) of 2880 nM and an IC50 (HIV-1 mutant 234I) of 45 nM. For the same molecule, the IC50 (HIV-1 mutant 100I; [15]) was 597 nM, the IC50 (HIV-1 mutant 225H) was 171 nM and the IC50 (HIV-1 mutant 179E) was 158 nM. It also gave an IC50 (HIV-1 mutant 138K) of 64 nM, an IC50 [7, 16] of 10000 nM and an IC50 (HIV-1 mutant 188C) of 3760 nM. For the same molecule, the IC50 (HIV-1 mutant 179D) was 161 nM, the IC50 [8, 17] was 10000 nM and the IC50 [9] was 10000 nM. The IC50 (HIV-1 mutant 181C; [15]) was at least 10000 nM, the IC50 (HIV-1 mutant 236L) was 41 nM and the “time to emergence of resistant virus” value (wild type HIV-1) was 3 to 6 days.
For `Nc1nc(=O)n([C@@H]2CS[C@H](CO)O2)cc1F` (racemic) [FTC, (±)-cis-4-amino-5-fluoro-1-[2-(hydroxymethyl)-1,3-oxathiolan-5-yl]-2(1H)-pyrimidinone], the “cycles of infection until highly drug-resistant variants dominated” value (HIV-1 [10]) is given as “two or more”.
Molecule `O=C1Nc2ccc(Cl)cc2[C@@](C#CC2CC2)(C(F)(F)F)O1` [EFV, efavirenz] has an IC50 (HIV-1 wild type; [14]) of 1.4 nM, an IC50 (HIV-1 mutant 190S) of 275 nM and an IC50 (HIV-1 mutant 188L; [15]) of 78 nM. It also gave an IC50 (HIV-1 mutant 101E) of 5 nM, an IC50 (HIV-1 mutant 108I) of 2 nM and an IC50 (HIV-1 mutant 227C; [15]) of 36 nM. The IC50 (HIV-1 mutant 188H) was 9 nM, the IC50 [6] was 84 nM and the IC50 (HIV-1 mutant 106A) was 23 nM. It also gave an IC50 (HIV-1 mutant 190A) of 8 nM, an IC50 (HIV-1 mutant 227L) of 0.3 nM and an IC50 (HIV-1 mutant 103N; [15]) of 28 nM. It also gave an IC50 (HIV-1 mutant 100I; [15]) of 35 nM, an IC50 (HIV-1 mutant 225H) of 2 nM and an IC50 (HIV-1 mutant 179E) of 5 nM. The IC50 (HIV-1 mutant 138K) was 1.3 nM, the IC50 [7, 16] was 8 nM and the IC50 (HIV-1 mutant 188C) was 5 nM. It also gave an IC50 (HIV-1 mutant 179D) of 6 nM, an IC50 [8, 17] of 10000 nM and an IC50 [9] of 37 nM. The IC50 (HIV-1 mutant 181C; [15]) was 2 nM and the IC50 (HIV-1 mutant 236L) was 1 nM.
In the case of `Nc1nc(=O)n([C@@H]2CS[C@H](CO)O2)cc1F` (racemic) [(−)-beta-enantiomer of FTC, Emtricitabine], the “in vitro anti-HIV-1 activity relative to the (+)-beta-enantiomer” value (HIV-1 [11]) is listed as 20 fold.
Molecule `Cc1cc(/C=C\C#N)cc(C)c1Nc1ccnc(Nc2ccc(C#N)cc2)n1` [Z-TMC278, (Z)-4-[[4-[[4-(2-cyanoethenyl)-2,6-dimethylphenyl]-amino]-2-pyrimidinyl]-amino]-benzonitrile] has an IC50 (HIV-1 wild type; Table 1, HIV RT mutation: Wild-type, read-out: IC50 value) of 0.6 nM, an IC50 (HIV-1 mutant 188L; [18]) of 32 nM and an IC50 [12] of 40 nM. It also gave an IC50 (HIV-1 mutant 227C; [18]) of 4 nM, an IC50 (HIV-1 mutant 103N; [18]) of 1.6 nM and an IC50 (HIV-1 mutant 100I; [18]) of 6.3 nM. For the same molecule, the IC50 [7, 18] was 4 nM, the IC50 ([8]; Human immunodeficiency virus 1, MT4, read-out: IC50 value, Table 1, HIV RT mutation: 100I + 103N) was 790 nM and the IC50 (HIV-1 mutant 181C; [18]) was 5 nM.
In the case of `CC(Cn1cnc2c(N)ncnc21)OCP(=O)(O)OP(=O)(O)OP(=O)(O)O` (stereo in doubt) [Tenofovir diphosphate], the Ki (HIV-1 RT) is listed as about 900 nM.
With `Cc1cc(C=CC#N)cc(C)c1Nc1ccnc(Nc2ccc(C#N)cc2)n1` [TMC278, 4-[[4-[[4-(2-cyanoethenyl)-2,6-dimethylphenyl]-amino]-2-pyrimidinyl]-amino]-benzonitrile] the “inhibition of HIV replication in MO-DC/CD4(+) T cell co-cultures” value [13] was “potently inhibits HIV replication”.
